Laboratory results published in ChEMBL document CHEMBL4308854, “Novel indole-thiazolidinone conjugates: Design, synthesis and whole-cell phenotypic evaluation as a novel class of antimicrobial agents” (Eur J Med Chem, 2018).
Converted amounts (≈) assume the structure as drawn.

Columns and labels:
786-0 = assay: Growth inhibition of human 786-0 cells assessed as cell growth at 10^-5 M incubated for 48 hrs by sulforhodamine B assay relative to control; format: cell-based; parameters: scale not given: the % may be the effect or the level left; settings: 786-0, 48 h, 10 µM
Enterococcus faecium = assay: Antibacterial activity against vancomycin-resistant Enterococcus faecium ATCC 700221 after 24 hrs by serial dilution method; format: functional; settings: ATCC 700221, 24 h
SF-539 = assay: Growth inhibition of human SF539 cells assessed as cell growth at 10^-5 M incubated for 48 hrs by sulforhodamine B assay relative to control; format: cell-based; parameters: scale not given: the % may be the effect or the level left; settings: sf-539, 48 h, 10 µM
Staphylococcus aureus = assay: Antibacterial activity against methicillin-resistant Staphylococcus aureus ATCC 33592 after 24 hrs by serial dilution method; format: functional; settings: ATCC 33592, 24 h
A498 = assay: Growth inhibition of human A498 cells assessed as cell growth at 10^-5 M incubated for 48 hrs by sulforhodamine B assay relative to control; format: cell-based; parameters: scale not given: the % may be the effect or the level left; settings: a498, 48 h, 10 µM
UO-31 = assay: Growth inhibition of human UO31 cells assessed as cell growth at 10^-5 M incubated for 48 hrs by sulforhodamine B assay relative to control; format: cell-based; parameters: scale not given: the % may be the effect or the level left; settings: uo-31, 48 h, 10 µM
SK-OV-3 = assay: Growth inhibition of human SKOV3 cells assessed as cell growth at 10^-5 M incubated for 48 hrs by sulforhodamine B assay relative to control; format: cell-based; parameters: scale not given: the % may be the effect or the level left; settings: sk-ov-3, 48 h, 10 µM
Aspergillus fumigatus [1] = assay: Potency index, ratio of amphotericin B MIC to compound MIC for antifungal activity against Aspergillus fumigatus RCMB 02568; format: functional
SF-268 = assay: Growth inhibition of human SF268 cells assessed as cell growth at 10^-5 M incubated for 48 hrs by sulforhodamine B assay relative to control; format: cell-based; parameters: scale not given: the % may be the effect or the level left; settings: sf-268, 48 h, 10 µM
[2] = Cytotoxicity against mouse RAW264.7 cells; format: cell-based
Aspergillus fumigatus [3] = assay: Antifungal activity against Aspergillus fumigatus RCMB 02568 assessed as diameter of zone inhibition after 48 hrs by agar well diffusion assay; format: functional
Aspergillus fumigatus [4] = assay: Potency index, ratio of amphotericin B MIC to compound MIC for Aspergillus fumigatus RCMB 02568; format: functional

CC(=O)c1sc(/N=C2\NC(=O)/C(=C3/C(=O)N(C)c4ccc(Cl)cc43)S2)nc1C showed an Activity (786-0) of 106.86%, an MIC (Enterococcus faecium) of 7.81 µg/mL (≈ 18 µM) and an Activity (SF-539) of 94.05%. For the same compound, the MIC (Staphylococcus aureus) was 3.9 µg/mL (≈ 9.01 µM), the Activity (A498) was 104.41% and the Activity (UO-31) was 90.16%. The Activity (SK-OV-3) was 117.19%, the Ratio (Aspergillus fumigatus [1]) was 2 and the Activity (SF-268) was 98.04%. The GI50 [2] was 125 µg/mL (≈ 289 µM), the “diameter of the inhibition zone (DIZ)” value (Aspergillus fumigatus [3]) was 22.2 mm and the Ratio (Aspergillus fumigatus [4]) was 2.

CCOC(=O)c1sc(/N=C2\NC(=O)/C(=C3/C(=O)N(Cc4ccccc4)c4ccc(Cl)cc43)S2)nc1C gave an Activity (786-0) of 103.02%, an Activity (SF-539) of 99.4% and an Activity (A498) of 104.48%. The Activity (UO-31) was 91.72%, the Activity (SK-OV-3) was 103.42% and the Activity (SF-268) was 93.91%. The GI50 [2] was 62.5 µg/mL (≈ 116 µM) and the “diameter of the inhibition zone (DIZ)” value (Aspergillus fumigatus [3]) was 21.3 mm.
